Test [1] has as its target Glucagon receptor (Homo sapiens, UniProt P47871). The experiment in a line: Agonist activity at GCGR expressed in HEK293 cells assessed as stimulation of cAMP production by luciferase reporter gene assay. The class given is functional, cell-based. On the technique in general: Changes in cAMP serve as a functional read-out for many G protein-coupled receptors.
Test [2] concerns the target Glucagon-like peptide 1 receptor (Homo sapiens, UniProt P43220). The test can be described thus: Agonist activity at GLP1R expressed in HEK293 cells assessed as stimulation of cAMP production by luciferase reporter gene assay. The test is classed as functional, cell-based.

Structures are written as SMILES.

Glucagon-like peptide 1 receptor, sequence (P43220 whole entry): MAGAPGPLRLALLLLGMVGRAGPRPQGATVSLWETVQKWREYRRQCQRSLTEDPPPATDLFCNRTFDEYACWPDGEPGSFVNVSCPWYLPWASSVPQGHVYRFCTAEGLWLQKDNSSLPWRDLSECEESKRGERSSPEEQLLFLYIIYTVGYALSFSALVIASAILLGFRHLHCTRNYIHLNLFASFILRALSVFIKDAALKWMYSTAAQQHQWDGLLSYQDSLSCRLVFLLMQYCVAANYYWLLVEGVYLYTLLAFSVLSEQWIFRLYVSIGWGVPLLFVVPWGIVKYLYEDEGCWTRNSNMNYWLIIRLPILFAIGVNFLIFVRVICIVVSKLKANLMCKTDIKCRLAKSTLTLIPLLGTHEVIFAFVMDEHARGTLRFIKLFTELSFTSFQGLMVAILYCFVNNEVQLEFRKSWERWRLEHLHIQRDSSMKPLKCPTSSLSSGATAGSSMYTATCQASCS
Glucagon receptor, sequence (P47871 whole entry): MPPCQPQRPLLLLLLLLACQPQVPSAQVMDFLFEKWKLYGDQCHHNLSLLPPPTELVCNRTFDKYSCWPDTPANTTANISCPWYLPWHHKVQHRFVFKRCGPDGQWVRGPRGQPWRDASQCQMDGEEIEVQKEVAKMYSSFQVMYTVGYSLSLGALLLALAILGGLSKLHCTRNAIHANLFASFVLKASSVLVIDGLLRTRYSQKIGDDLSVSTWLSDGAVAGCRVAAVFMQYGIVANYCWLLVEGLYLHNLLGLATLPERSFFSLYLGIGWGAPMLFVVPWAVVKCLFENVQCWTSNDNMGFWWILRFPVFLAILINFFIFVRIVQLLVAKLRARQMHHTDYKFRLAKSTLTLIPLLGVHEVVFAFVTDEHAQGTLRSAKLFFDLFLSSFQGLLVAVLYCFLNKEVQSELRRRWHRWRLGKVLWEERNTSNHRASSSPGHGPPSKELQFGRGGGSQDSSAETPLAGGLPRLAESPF

As a reminder, the EC50 is the concentration at which the effect is half-maximal. In the case of `CSCC[C@H](NC(=O)[C@H](CC(C)C)NC(=O)[C@H](Cc1c[nH]c2ccccc12)NC(=O)[C@H](CCC(N)=O)NC(=O)[C@@H](NC(=O)[C@H](Cc1ccccc1)NC(=O)[C@H](CC(=O)O)NC(=O)[C@H](CCC(N)=O)NC(=O)[C@H](C)NC(=O)[C@H](CCCN=C(N)N)NC(=O)[C@H](CCCN=C(N)N)NC(=O)[C@@H]1CCC(=O)NCCCC[C@H](NC(=O)[C@H](CO)NC(=O)[C@H](Cc2ccc(O)cc2)NC(=O)[C@H](CC(=O)O)NC(=O)[C@H](CO)NC(=O)[C@@H](NC(=O)[C@H](Cc2ccccc2)NC(=O)[C@@H](NC(=O)CNC(=O)[C@H](CCC(N)=O)NC(=O)[C@H](CO)N[C@@H](Cc2cnc[nH]2)C(=O)O)[C@@H](C)O)[C@@H](C)O)C(=O)N[C@@H](Cc2ccc(O)cc2)C(=O)N[C@@H](CC(C)C)C(=O)N[C@@H](CC(=O)O)C(=O)N1)C(C)C)C(=O)N[C@@H](CC(N)=O)C(=O)N[C@H](C(=O)O)[C@@H](C)O`, the figures for the EC50 in test [1] and in test [2] were 0.046 nM and 0.051 nM, respectively.
As for `CSCC[C@H](NC(=O)[C@H](CC(C)C)NC(=O)[C@H](Cc1c[nH]c2ccccc12)NC(=O)[C@H](CCC(N)=O)NC(=O)[C@@H](NC(=O)[C@H](Cc1ccccc1)NC(=O)[C@H](CCC(=O)O)NC(=O)[C@H](CCCCN)NC(=O)[C@H](C)NC(=O)[C@H](CCCNC(=N)N)NC(=O)[C@H](CCCNC(=N)N)NC(=O)[C@H](CCC(=O)O)NC(=O)[C@H](CC(=O)O)NC(=O)[C@H](CC(C)C)NC(=O)[C@H](Cc1ccc(O)cc1)NC(=O)[C@H](CCCCN)NC(=O)[C@H](CO)NC(=O)[C@H](Cc1ccc(O)cc1)NC(=O)[C@H](CC(=O)O)NC(=O)[C@H](CO)NC(=O)[C@@H](NC(=O)[C@H](Cc1ccccc1)NC(=O)[C@@H](NC(=O)CNC(=O)[C@H](CCC(N)=O)NC(=O)[C@H](CO)N[C@@H](Cc1cnc[nH]1)C(=O)O)[C@@H](C)O)[C@@H](C)O)C(C)C)C(=O)N[C@@H](CC(N)=O)C(=O)N[C@H](C(N)=O)[C@@H](C)O`, the values for the EC50 in test [1] and in test [2] were 0.068 nM and 0.075 nM, respectively.
As for `CC[C@H](C)[C@H](NC(=O)[C@H](Cc1ccccc1)NC(=O)[C@H](CCC(=O)O)NC(=O)[C@H](CCCCN)NC(=O)[C@H](C)NC(=O)[C@H](C)NC(=O)[C@H](CCC(=O)O)NC(=O)[C@H](CCC(=O)O)NC(=O)[C@H](CCC(=O)O)NC(=O)[C@H](CC(C)C)NC(=O)[C@H](Cc1ccc(O)cc1)NC(=O)[C@H](CO)NC(=O)[C@H](CO)NC(=O)[C@@H](NC(=O)[C@H](CC(=O)O)NC(=O)[C@H](CO)NC(=O)[C@@H](NC(=O)[C@H](Cc1ccccc1)NC(=O)[C@@H](NC(=O)CNC(=O)[C@H](CCC(=O)O)NC(=O)[C@H](C)N[C@@H](Cc1cnc[nH]1)C(=O)O)[C@@H](C)O)[C@@H](C)O)C(C)C)C(=O)N[C@@H](C)C(=O)N[C@@H](Cc1c[nH]c2ccccc12)C(=O)N[C@@H](CC(C)C)C(=O)N[C@H](C(=O)N[C@@H](CCCCN)C(=O)NCC(=O)N[C@@H](CCN=C(N)N)C(N)=O)C(C)C`, the figures for the EC50 in test [1] and in test [2] were over 1000 nM and 0.011 nM, respectively.
With `CSCC[C@H](NC(=O)[C@H](CC(C)C)NC(=O)[C@H](Cc1c[nH]c2ccccc12)NC(=O)[C@H](CCC(N)=O)NC(=O)[C@@H](NC(=O)[C@H](Cc1ccccc1)NC(=O)[C@H](CC(=O)O)NC(=O)[C@H](CCC(N)=O)NC(=O)[C@H](C)NC(=O)[C@H](CCCN=C(N)N)NC(=O)[C@H](CCCN=C(N)N)NC(=O)[C@H](CCC(N)=O)NC(=O)[C@H](CC(=O)O)NC(=O)[C@H](CC(C)C)NC(=O)[C@H](Cc1ccc(O)cc1)NC(=O)[C@H](CCCCN)NC(=O)[C@H](CO)NC(=O)[C@H](Cc1ccc(O)cc1)NC(=O)[C@H](CC(=O)O)NC(=O)[C@H](CO)NC(=O)[C@@H](NC(=O)[C@H](Cc1ccccc1)NC(=O)[C@@H](NC(=O)CNC(=O)[C@H](CCC(N)=O)NC(=O)[C@H](CO)N[C@@H](Cc1cnc[nH]1)C(=O)O)[C@@H](C)O)[C@@H](C)O)C(C)C)C(=O)N[C@@H](CC(N)=O)C(=O)N[C@H](C(N)=O)[C@@H](C)O`, the EC50 in test [2] was determined as 0.26 nM.

(Values after ChEMBL document CHEMBL1221226 (Nat Chem Biol, 2009).)
